According to US9890166B2, “Imidazopyrrolidine derivatives and their use in the treatment of disease” (NOVARTIS AG, priority 2013, dated 2018):

Tests used:
BRD4 (His-Brd4(44-477)) = BRD4 (His-Brd4(44-477)) (Homo sapiens (Human), UniProt O60885); assay: TR-FRET in-vitro binding assay for BRD4; details: single determination or n ≧ 2 independent determinations, read-out: Biochemical IC50 BRD4
Procedure, shortened: (§1)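 In this TR-FRET format, each compound was tested as an 8-point dilution series, single point per concentration, dispensed from 90% DMSO solution. Incubation lasted 35 minutes at 30° C.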

BRD2 (His-Brd2(60-472)) = BRD2 (His-Brd2(60-472)) (Homo sapiens (Human), UniProt P25440); assay: TR-FRET in-vitro binding assay for BRD2; details: single determination or n ≧ 2 independent determinations, read-out: Biochemical IC50 BRD2
Procedure, shortened: as §1

BRD3 (His-Brd3(20-477)) = BRD3 (His-Brd3(20-477)) (Homo sapiens (Human), UniProt Q15059); assay: TR-FRET in-vitro binding assay for BRD3; details: single determination or n ≧ 2 independent determinations, read-out: Biochemical IC50 BRD3
Procedure, shortened: as §1

[1] = target: CREBBP bromodomain (His-CREBBP(1081-1197)) (Homo sapiens (Human), UniProt Q92793); assay: AlphaScreen in-vitro binding assay for CREBBP; details: single determination or n ≧ 2 independent determinations, read-out: Biochemical IC50 CREBBP
Procedure, shortened: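 Detection used nickel-chelate acceptor plus streptavidin donor AlphaScreen beads, 1 h room temperature. Percent inhibition fitted by non-linear regression to IC50.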

THP-1 cells = assay: Cell growth inhibition assay (CellTiter-Glo), THP-1; details: for GI50: Homo sapiens, THP-1, read-out: THP-1 GI50; for THP-1 TGI: THP-1 cells, total growth inhibition, CellTiter-Glo;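 for all read-outs here: viability read as cellular ATP luminescence after 4 days, 3-fold dilution series from 10 µM, DMSO vehicle-treated cells taken as 100%, cell-free medium wells as −100%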
K-562 cells = assay: Cell growth inhibition assay (CellTiter-Glo), K-562; details: for GI50: Homo sapiens, K562, read-out: K-562 GI50; for K-562 TGI: K-562 cells, total growth inhibition, CellTiter-Glo;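 for all read-outs here: cellular ATP measured by luminescence after 4 days of exposure, 3-fold dilution series from 10 µM, DMSO vehicle-treated cells define 100%, cell-free medium wells −100%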
MV-4-11 cells = assay: Cell growth inhibition assay (CellTiter-Glo), MV-4-11; details: for GI50: Homo sapiens, MV4-11, read-out: MV-4-11 GI50; for MV-4-11 TGI: MV-4-11 cells, total growth inhibition, CellTiter-Glo;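 for all read-outs here: cellular ATP luminescence after 4 days, 3-fold dilution series from 10 µM top dose, vehicle (0.1% DMSO) set to 100%, cell-free medium set to −100%, day 0 corrected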

Sequence of CREBBP bromodomain (His-CREBBP(1081-1197)) (Q92793 1081-1197): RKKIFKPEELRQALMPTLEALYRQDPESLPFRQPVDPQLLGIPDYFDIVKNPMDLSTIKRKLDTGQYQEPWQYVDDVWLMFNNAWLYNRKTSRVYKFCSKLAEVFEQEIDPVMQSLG
Sequence of BRD2 (His-Brd2(60-472)) (P25440 60-472): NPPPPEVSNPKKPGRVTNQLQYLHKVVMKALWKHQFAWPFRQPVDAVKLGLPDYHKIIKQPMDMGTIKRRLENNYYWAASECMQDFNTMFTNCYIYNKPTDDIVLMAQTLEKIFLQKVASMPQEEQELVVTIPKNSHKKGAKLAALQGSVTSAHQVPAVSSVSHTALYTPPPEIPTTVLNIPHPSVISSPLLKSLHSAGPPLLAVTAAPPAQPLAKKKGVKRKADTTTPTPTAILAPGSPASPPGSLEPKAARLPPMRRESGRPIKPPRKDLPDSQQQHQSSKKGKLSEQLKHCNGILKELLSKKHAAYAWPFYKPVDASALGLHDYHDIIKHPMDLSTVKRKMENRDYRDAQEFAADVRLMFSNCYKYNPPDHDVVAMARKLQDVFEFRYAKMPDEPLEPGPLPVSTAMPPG
Sequence of BRD3 (His-Brd3(20-477)) (Q15059 20-477): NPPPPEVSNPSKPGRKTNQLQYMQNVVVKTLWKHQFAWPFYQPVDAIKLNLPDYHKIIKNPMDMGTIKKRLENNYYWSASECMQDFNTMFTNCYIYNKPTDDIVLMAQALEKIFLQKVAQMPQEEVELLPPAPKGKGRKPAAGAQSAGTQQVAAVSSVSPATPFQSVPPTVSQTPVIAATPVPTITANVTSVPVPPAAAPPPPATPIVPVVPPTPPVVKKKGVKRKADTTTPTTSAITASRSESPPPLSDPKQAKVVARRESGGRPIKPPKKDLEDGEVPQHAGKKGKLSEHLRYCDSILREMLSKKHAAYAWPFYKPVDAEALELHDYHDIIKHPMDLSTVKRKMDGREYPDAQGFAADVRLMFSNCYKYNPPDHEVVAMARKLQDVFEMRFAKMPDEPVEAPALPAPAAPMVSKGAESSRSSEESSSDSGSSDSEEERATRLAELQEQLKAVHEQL

SMILES | IC50 (BRD4 (His-Brd4(44-477))) | IC50 (BRD2 (His-Brd2(60-472))) | IC50 (BRD3 (His-Brd3(20-477))) | IC50 [1] | GI50 (THP-1 cells) | THP-1 TGI (THP-1 cells) | GI50 (K-562 cells) | K-562 TGI (K-562 cells) | GI50 (MV-4-11 cells) | MV-4-11 TGI (MV-4-11 cells)
Cc1cc(N2C(=O)c3nc(C)n(C(C)C)c3C2c2ccc(Cl)cc2)nn2c(C(F)F)nnc12 (stereo not drawn) [Example 150, 6-(4-chlorophenyl)-5-(3-(difluoromethyl)-8-methyl-[1,2,4]triazolo[4,3-b]pyridazin-6-yl)-1-isopropyl-2-methyl-5,6-dihydropyrrolo[3,4-d]imidazol-4(1H)-one] | 38 nM | 94 nM | 39 nM | > 37000 nM | 17.3 nM | 46.4 nM | 75.3 nM | >10000 nM | 9.63 nM | 24.2 nM
Cc1cc(N2C(=O)c3nc(C)n(C(C)C)c3[C@H]2c2ccc(Cl)cc2)cn2c(C)nnc12 [Example 59, (R)-6-(4-chlorophenyl)-5-(3,8-dimethyl-[1,2,4]triazolo[4,3-a]pyridin-6-yl)-1-isopropyl-2-methyl-5,6-dihydropyrrolo[3,4-d]imidazol-4(1H)-one] | 30 nM | 48 nM | 34 nM | 5700 nM | 41 nM | 114 nM | 117 nM | >10000 nM | 17.8 nM | 34.9 nM
Cc1cc(N2C(=O)c3nc(C4=CCCN(C)C4)n(C(C)C)c3C2c2ccc(Cl)cc2)cn2c(CF)nnc12 (stereo not drawn) [Example 91] | 34.5 nM | 95 nM | 45 nM | 17500 nM | 122 nM | 334 nM | 353 nM | >10000 nM | 27.4 nM | 63.7 nM
COc1ccc(-c2nc3c(n2C(C)C)[C@@H](c2ccc(Cl)cc2)N(c2cc(C)c4nnn(C)c4n2)C3=O)cn1 [Example 154, (R)-6-(4-chlorophenyl)-5-(3,7-dimethyl-3H-[1,2,3]triazolo[4,5-b]pyridin-5-yl)-1-isopropyl-2-(6-methoxypyridin-3-yl)-5,6-dihydropyrrolo[3,4-d]imidazol-4(1H)-one] | 19 nM | 42 nM | 19 nM | > 37000 nM | 4.68 nM | 12.2 nM | 21.4 nM | >10000 nM | 3.64 nM | 8.305 nM
COc1ncc(-c2nc3c(n2C(C)C)[C@@H](c2ccc(Cl)cc2)N(c2cc(C)c4nnc(C(F)F)n4c2)C3=O)c(OC)n1 [Example 159, (R)-6-(4-chlorophenyl)-5-(3-(difluoromethyl)-8-methyl-[1,2,4]triazolo[4,3-a]pyridin-6-yl)-2-(2,4-dimethoxypyrimidin-5-yl)-1-isopropyl-5,6-dihydropyrrolo[3,4-d]imidazol-4(1H)-one] | < 11 nM | 16 nM | 12 nM | 12600 nM | 12.1 nM | 31.5 nM | 40.5 nM | >10000 nM | 5.86 nM | 15.6 nM
COc1ncc(-c2nc3c(n2C(C)C)C(c2ccc(Cl)cc2)N(c2cc(C)c4nnc(C(F)F)n4c2)C3=O)c(OC)n1 (stereo not drawn) [Example 143, 6-(4-chlorophenyl)-5-(3-(difluoromethyl)-8-methyl-[1,2,4]triazolo[4,3-a]pyridin-6-yl)-2-(2,4-dimethoxypyrimidin-5-yl)-1-isopropyl-5,6-dihydropyrrolo[3,4-d]imidazol-4(1H)-one] | 19 nM | 34 nM | 18 nM | > 37000 nM | 11.3 nM | 30.65 nM | 44 nM | >10000 nM | 9.19 nM | 16.1 nM
Cc1cc(N2C(=O)c3nc(C4=CCOCC4)n(C(C)C)c3[C@H]2c2ccc(Cl)cc2)nn2c(C)nnc12 [Example 103, (R)-6-(4-chlorophenyl)-2-(3,6-dihydro-2H-pyran-4-yl)-5-(3,8-dimethyl-[1,2,4]triazolo[4,3-b]pyridazin-6-yl)-1-isopropyl-5,6-dihydropyrrolo[3,4-d]imidazol-4(1H)-one] | < 11 nM | < 11 nM | < 11 nM | > 37000 nM | 3.47 nM | 10.55 nM | 12.4 nM | >10000 nM | 2.09 nM | 3.945 nM
Cc1cc(N2C(=O)c3ncn(C(C)C)c3C2c2ccc(Cl)cc2)cc2c1nnn2C (stereo not drawn) [Example 106, 6-(4-chlorophenyl)-5-(1,4-dimethyl-1H-benzo[d][1,2,3]triazol-6-yl)-1-isopropyl-5,6-dihydropyrrolo[3,4-d]imidazol-4(1H)-one] | 40.5 nM | 90 nM | 41.5 nM | 7200 nM | 50.1 nM | 86.8 nM | 92.5 nM | >10000 nM | 19.3 nM | 34.7 nM
Cc1cc(N2C(=O)c3nc(C4CC4)n(C(C)C)c3[C@H]2c2ccc(Cl)cc2)cn2c(C)nnc12 [Example 107, (R)-6-(4-chlorophenyl)-2-cyclopropyl-5-(3,8-dimethyl-[1,2,4]triazolo[4,3-a]pyridin-6-yl)-1-isopropyl-5,6-dihydropyrrolo[3,4-d]imidazol-4(1H)-one] | 23 nM | 28 nM | 23 nM | 1450 nM | 11.2 nM | 23.75 nM | 41.8 nM | >10000 nM | 4.84 nM | 9.71 nM
COc1cc(N2C(=O)c3nc(C4=CCOCC4)n(C(C)C)c3C2c2ccc(Cl)cc2)cc2c1nnn2C (stereo not drawn) [Example 60] | 31.5 nM | 96 nM | 53.5 nM | 21900 nM | 69 nM | 132 nM | 280 nM | >10000 nM | 34 nM | 63.1 nM
CCCn1c(-c2cncc(C#N)c2)nc2c1C(=O)N(c1cc(C)c(=O)n(C)c1)C2c1ccc(Cl)cc1 (stereo not drawn) [Example 37, 5-(4-(4-chlorophenyl)-5-(1,5-dimethyl-6-oxo-1,6-dihydropyridin-3-yl)-6-oxo-1-propyl-1,4,5,6-tetrahydropyrrolo[3,4-d]imidazol-2-yl)nicotinonitrile] | 166 nM | 274 nM | 164 nM | 4100 nM | 100 nM | 195 nM | 320 nM | >10000 nM | 66.9 nM | 105 nM
COc1ncccc1-c1nc2c(n1C(C)C)C(c1ccc(Cl)cc1)N(c1cc(OC)c3nnn(C)c3c1)C2=O (racemic) [Example 74, 6-(4-chlorophenyl)-1-isopropyl-5-(4-methoxy-1-methyl-1H-benzo[d][1,2,3]triazol-6-yl)-2-(2-methoxypyridin-3-yl)-5,6-dihydropyrrolo[3,4-d]imidazol-4(1H)-one] | 32 nM | 140 nM | 61 nM | 10300 nM | 57.9 nM | 121 nM | 158 nM | >10000 nM | 38.2 nM | 59.25 nM
